Test results reported in patent US20220211750A1, “COMPOSITIONS AND METHODS USING A COMBINATION OF CALCIUM AND AT LEAST ONE OF OLEUROPEIN OR METABOLITE THEREOF” (SOCIETE DES PRODUITS NESTLE S.A., priority 2019, published 2022).

System: C2C12-derived myotubes
Assay: Mitochondrial calcium rise (mitochondrial aequorin) in caffeine-stimulated C2C12-derived myotubes
Format: cell-based, mouse
Conditions: evoked by 5 mM caffeine, vs 0.5 mM calcium in the medium
Source text: To test the effect of Oleuropein, its metabolites and calcium supplementation/deficiency in living cells, the inventors measured mitochondrial calcium elevation in HeLa cells and in myotubes differentiated from both mouse C2C12 cells and human primary adult muscle cells. HeLa cells and C2C12 cells were purchased from ATCC. Human Skeletal Muscle Myoblasts (HSMM) were purchased from Lonza. HSMM were isolated from the upper arm or leg muscle tissue of normal donors and used after the second passage. HeLa cells were seeded in 96-well plates at a density of 50000 cells per well in minimal essential medium (DMEM, Gibco), high glucose, +10% fetal calf serum. C2C12 cells were seeded in 96-well plates at a density of 8000 cells per well in DMEM high glucose (Gibco)+10% fetal calf serum. Myotubes were differentiated from C2C12 cells by growing the cells in DMEM containing 2% horse serum, for 4 days. HSMM were seeded in 96-well plates at a density of 8000 cells per well in DMEM/F-12 (Gibco). […]
For treatment, compounds were directly added to the cell culture or myotubes cultures 2 hours before measurements. Luminescence was measured at the Cytation 3 cell imaging reader (Biotek) or at the FLIPR Tetra Aequorin (Molecular Devices). […] Custom module analysis based on Excel (Microsoft) and GhaphPad Prism 7.02 (GraphPad) software was used for quantification.

With `[Ca+2]` [calcium] the “integrated mitochondrial calcium rise, effect of extracellular calcium abundance” value (P<0.05, listed as Ca^2+) was “activates mitochondrial Ca^2+ elevation in a dose/response manner” and the “integrated mitochondrial calcium rise, effect of extracellular calcium abundance” value (P<0.05, listed as Ca′) was “enhances mitochondrial Ca′ elevation in a dose/response manner”.
